From ChEMBL document CHEMBL4219234, “4-Substituted carbamazepine derivatives: Conformational analysis and sodium channel-blocking properties” (Bioorg Med Chem, 2018)
Calls of active or inactive are those of the source. No cut-off for these calls is given here.

Tests used:
[1] = Solubility of the compound in DMSO at > 14.3 uM; assay type: physicochemical
[2] = biological target: Sodium channel protein type 2 subunit alpha (Homo sapiens) (UniProt Q99250); assay: Inhibition of human Nav1.2 expressed in CHOK1 cells assessed as reduction in peak inward current at 30th pulse using holding potential of -50 mV by patch clamp assay; assay type: cell-based
Sequence of Sodium channel protein type 2 subunit alpha (Homo sapiens) (Q99250 whole entry, looked up): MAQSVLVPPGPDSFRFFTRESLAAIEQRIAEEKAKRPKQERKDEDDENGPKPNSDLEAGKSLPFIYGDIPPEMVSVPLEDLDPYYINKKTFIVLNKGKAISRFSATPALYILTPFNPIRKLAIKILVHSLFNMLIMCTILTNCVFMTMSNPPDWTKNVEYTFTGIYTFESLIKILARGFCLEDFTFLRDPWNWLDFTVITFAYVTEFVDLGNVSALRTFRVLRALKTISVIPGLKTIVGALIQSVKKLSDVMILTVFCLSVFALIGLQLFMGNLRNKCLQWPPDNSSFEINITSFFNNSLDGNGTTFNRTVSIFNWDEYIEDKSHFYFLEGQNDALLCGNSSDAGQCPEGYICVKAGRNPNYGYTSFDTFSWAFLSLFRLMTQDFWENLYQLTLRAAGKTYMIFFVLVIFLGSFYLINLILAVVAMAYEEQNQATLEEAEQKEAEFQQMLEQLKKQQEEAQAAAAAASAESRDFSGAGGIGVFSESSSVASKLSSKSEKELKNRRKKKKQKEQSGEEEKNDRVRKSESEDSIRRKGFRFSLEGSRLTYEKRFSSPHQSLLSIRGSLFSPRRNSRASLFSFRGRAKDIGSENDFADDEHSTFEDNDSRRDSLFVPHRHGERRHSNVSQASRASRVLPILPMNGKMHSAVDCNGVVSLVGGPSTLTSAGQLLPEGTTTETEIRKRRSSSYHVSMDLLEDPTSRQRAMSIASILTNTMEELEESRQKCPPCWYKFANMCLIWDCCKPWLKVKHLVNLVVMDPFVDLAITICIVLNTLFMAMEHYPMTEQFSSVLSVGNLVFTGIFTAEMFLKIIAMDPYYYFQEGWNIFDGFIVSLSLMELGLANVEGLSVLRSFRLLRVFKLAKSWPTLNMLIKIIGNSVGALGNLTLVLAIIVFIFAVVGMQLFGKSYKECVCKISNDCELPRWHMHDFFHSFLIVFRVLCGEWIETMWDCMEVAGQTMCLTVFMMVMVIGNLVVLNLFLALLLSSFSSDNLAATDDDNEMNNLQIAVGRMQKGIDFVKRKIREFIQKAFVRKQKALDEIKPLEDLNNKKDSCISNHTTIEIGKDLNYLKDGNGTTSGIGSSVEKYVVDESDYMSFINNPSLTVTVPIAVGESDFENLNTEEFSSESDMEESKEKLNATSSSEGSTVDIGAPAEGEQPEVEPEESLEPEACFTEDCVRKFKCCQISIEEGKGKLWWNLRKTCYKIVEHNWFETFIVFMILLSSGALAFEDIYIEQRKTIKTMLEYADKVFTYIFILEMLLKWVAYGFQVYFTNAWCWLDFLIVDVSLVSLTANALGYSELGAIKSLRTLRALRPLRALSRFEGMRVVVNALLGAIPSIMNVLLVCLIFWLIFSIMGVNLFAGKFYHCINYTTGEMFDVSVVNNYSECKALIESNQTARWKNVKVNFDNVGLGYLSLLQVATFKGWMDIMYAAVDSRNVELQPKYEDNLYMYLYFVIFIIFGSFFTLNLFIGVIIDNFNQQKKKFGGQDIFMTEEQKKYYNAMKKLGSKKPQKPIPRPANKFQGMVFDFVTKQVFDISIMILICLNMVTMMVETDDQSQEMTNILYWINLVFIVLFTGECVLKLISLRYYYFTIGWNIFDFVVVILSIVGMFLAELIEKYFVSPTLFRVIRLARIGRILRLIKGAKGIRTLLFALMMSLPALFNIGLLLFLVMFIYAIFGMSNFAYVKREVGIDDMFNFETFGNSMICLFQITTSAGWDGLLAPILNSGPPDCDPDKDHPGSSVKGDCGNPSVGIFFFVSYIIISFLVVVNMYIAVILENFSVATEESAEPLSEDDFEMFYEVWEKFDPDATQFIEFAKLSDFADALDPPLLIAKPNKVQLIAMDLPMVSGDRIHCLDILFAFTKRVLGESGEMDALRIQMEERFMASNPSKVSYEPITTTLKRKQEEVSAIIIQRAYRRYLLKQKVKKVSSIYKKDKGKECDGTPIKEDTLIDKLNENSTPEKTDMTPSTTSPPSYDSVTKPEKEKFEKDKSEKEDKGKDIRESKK

[3] = Solubility of the compound in DMSO at > 30 uM; assay type: physicochemical

solubility [1] | inhibition [2] | solubility [3] | Compound
Insoluble | Active | – | NC(=O)N1c2ccccc2C=Cc2cccc(Cl)c21
– | Active | – | NC(=O)N1c2ccccc2C=Cc2ccccc21
– | Active | Insoluble | Cc1cccc2c1N(C(N)=O)c1ccccc1C=C2
